Tests used:
[1] = Structural organisation study via 31P NMR (Hahn echo) of hydrated lipids; format: physicochemical; settings: hydrated medium, ambient temperature
Experimental: A stock solution of a cationic lipid is prepared in the chloroform. A volume of stock solution corresponding to a weight in lipids between 50 mg and 100 mg is pipette into a haemolysis tube and the chloroform is evaporated under of flow of N2 in such a way as to obtain a lipid film. 500 μL of water is then added and the mixture is subjected to ultrasound until complete dispersion of the lipid film. The mixture is lysed for one night. A volume of distilled water is then added in order to obtain a solution with a concentration of 100 mg·mL^−1. In order to ensure the balance of the sample, three cycles −198° C./50° C. are carried out: the sample is placed at −198° C. (liquid nitrogen) for 5 min, then the sample is placed in a water bath at 50° C. for 30 min and is vortexed.
The NMR ^31P spectra were acquired with a Hahn echo sequence (90°-τ-180°-τ-acq). The acquisition parameters were as follows: spectral window of 200 KHz, a pulse π/2 with a duration of […], a recycling period of 5 s and an echo period of 40 μs. The number of acquisitions depends on the volume of the sample and the acquisition temperature, and is between 128 and 1700 scans. The temperature of the sample is balanced for 30 min before the start of the acquisition. Lorentzian noise is filtered over the entire spectral window before the Fourier transform on the top of the echo. […]

[2] = Measurement of the size and zeta potential of liposomes (Zetasizer Nano ZS); format: physicochemical; settings: liposomal solution in water, 25° C.
Experimental: The cationic lipids were formulated in a liposomal solution by the method of hydration of a lipid film. Initially, a fraction of a concentrated solution of the cationic lipid is placed in a glass tube and evaporated to give a thin lipid film. 1 mL of water is then added to the film and the film is hydrated for 3 days at 4° C. The solution is then vortexed (1 min) and placed under ultrasound (30 to 60 min) at 45 kHz. Then 150 μL of the liposomal solution is diluted in 1.5 mL of sterile water. After filtration ([…]) of the liposomal solution, the size and the zeta potential of liposomes and lipoplexes are determined.
The size and zeta potential (ξ) of the liposomes and of the lipoplexes were measured with a Zetasizer Nano ZS (Malvern Instruments) at 25° C. after a suitable dilution of the formulations. For the measurements of the lipoplexes, each test used […] of plasmid DNA in water with the required amount of cationic lipid studied in order to form lipoplexes with charge ratios ranging from 0.5 to 8.0. For the measurements of the liposomes, a quantity of lipid equivalent to a mixture having a 1.0 charge ratio in water was used.

For CCCCCCCC/C=C/CCCCCCCCOP(=O)(NCC[N+](C)(C)C)OCCCCCCCC/C=C/CCCCCCCC.[I-] [Compound I-1], the “structure of the supramolecular aggregates (self-organisation)” value [1] was “lamellar form”, the PdI [2] was 0.26 and the “Size (nm)” value [2] was 94 nm. For the same molecule, the “Zeta Potential (mV)” value [2] was “+54 mV”.

— patent US10676492B2, “Branched amphiphilic lipids” (UNIVERSITÉ DE BRETAGNE OCCIDENTALE, priority 2015, dated 2020)
